Measured values from article PMC9182146, “BSA Interaction, Molecular Docking, and Antibacterial Activity of Zinc(II) Complexes Containing the Sterically Demanding Biomimetic N3S2 Ligand: The Effect of Structure Flexibility” (Molecules, 2022).
Where two headings read alike, the source gives them in different places.

Key:
BSA [1] = molecular target: T1, BSA (Bos taurus, UniProt P02769); conditions: for ΔHº / ΔSº: 288–308 K
Experimental: The association constants and number of binding sites between the zinc complexes and BSA were calculated according to Equation (4). (4) logF0−F/F=logKA+nlogQ
In general, ΔGº reflects the spontaneity of the reaction, whereas ΔHº and ΔSº are the main quantities for determining the binding force. The thermodynamic parameters of ΔHº and ΔSº were calculated using Equation (5), and the Gibbs free energy was estimated from Equation (6). lnKA = −ΔHº/RT + ΔSº/R(5) ΔGº = ΔHº − TΔSº = −RT ln KA(6)

BSA [2] = molecular target: T1, BSA; conditions: T = 298 K
Description: The Förster resonance energy transfer (FRET) mechanism allows the excitation energy to be passed from the donor to the acceptor without photon emission from the former molecular system. According to the FRET principle, the rate of energy transfer depends on the distance between the donor and the acceptor, the orientation of the donor and the acceptor dipoles, and the degree of overlap between the donor emission spectrum and the acceptor absorption spectrum. Energy transfer efficiency (E) can be used to evaluate the distance (r) between zinc complexes (acceptor) and BSA (donor) in protein using Equation (8), (8) E=1−F/F0=R06/R06+r^6 where F and F0 are the fluorescence intensity of BSA in the presence and absence of the acceptor, respectively, r is the distance between the acceptor and donor, R0 is the critical distance for 50% energy transfer and can be calculated using Equation (9), (9) R06=8.8×10^−25K^2N^−4∅J where the spatial orientation factor of the dipole K^2 = 2/3, the refractive index of the medium (water) N = 1.333, and the fluorescence quantum yield of the donor BSA ∅ = 0.15 [10, 38]. The spectral overlap integral (J), calculated from the overlap of the acceptor UV absorption spectra with the donor fluorescence emission spectra, is given using Equation (10). (10) J=∫0∞Fλε λλ^4dλ/∫0∞Fλdλ

Enterococcus = assay: MIC and MBC antibacterial test; assay type: cell-based; conditions: 30 °C; for MIC: 24 h
Experimental: (§1) All complexes were tested for antibacterial activity against both […] bacteria. The antibacterial function of complexes, represented as the diameter of the growth-inhibition region in millimeters, is shown in Figure 8. The minimum inhibitory concentration (MIC) and minimum bactericidal concentration (MBC) of complexes needed to inhibit bacterial growth are presented in Table 4. The MBC is identified by the determination of the lowest concentration of antibacterial agents that reduces the viability of the initial bacterial inoculum by a predetermined reduction of 99.9%. The value agreed on in two or more occasions was adopted as the MIC or MBC strain. Chloramphenicol was used for control purposes. From the inhibition zone, as well as the MIC and MBC data, one can conclude the following: Firstly, both complexes were active, but the activity was less than that for the normal drug (chloramphenicol).
(§2) The synthesized complexes were tested against both […] bacteria for antibacterial activity. The bacteria were incubated by shaking in the thermostat at 30 °C overnight. At this stage, a loop of each culture was placed in 10 mL of 10-fold diluted broth, and the test bacteria cultures containing 10^5 mL^−1 cells were used for antimicrobial testing. […] MIC and MBC as recommended by the NCCLS (National Committee for Clinical Laboratory Standards, Albany, NY, USA). After 24 h of incubation, the MIC was read at 30 °C equivalent to the concentration of the tube without visible growth to measure the effect of decreased antibiotic/antiseptic concentrations over a defined period of time on the inhibition of microbial population growth. These assessments may be quite useful during the R&D phase of the product to determine the appropriate concentrations required in the final product, since the concentration of the drug required to produce the effect is normally several hundreds to thousands of times lower than the concentration found in the completed dosage form.

Escherichia coli = assay: MIC and MBC antibacterial test; assay type: cell-based; conditions: 30 °C
Experimental: as §1, §2

Pseudomonas aeruginosa = assay: MIC and MBC antibacterial test; assay type: cell-based; conditions: 30 °C; for MIC: 24 h
Experimental: as §1, §2

Staphylococcus aureus = assay: MIC and MBC antibacterial test; assay type: cell-based; conditions: 30 °C; for MIC: 24 h
Experimental: as §1, §2

[3] = Dynamic light scattering size distribution of self-assembled adducts in water; assay type: physicochemical; conditions: DLS, room temperature
BSA [4] = molecular target: T1, BSA; assay: Fluorescence quenching of BSA (Stern–Volmer); conditions: for KSV (called binding constants in conclusions) / Kq: temperature not stated
BSA [5] = molecular target: T1, BSA; assay: Cyclic voltammetry of BSA with zinc complexes; conditions: for BSA cathodic peak potential after addition of complex: BSA alone approximately −0.39 V, water, Ag/AgCl reference; for kR/kO binding constants: reduced over oxidized form
Experimental: Cyclic voltammograms of BSA in water in the presence and absence of zinc complexes were used for a voltammetric study.
The optical absorptions were performed using a 1.0 cm quartz cell on a JASCO spectrophotometer (V-780). Fluorescence measurements were carried out using the JASCO spectrofluorometer (FP-8300 model). The excitation wavelength was set at 280 nm, and the wavelength of the emission was set to 285–600 nm. Picosecond fluorescence decay profiles were measured using the FluoTime 300 (Pico Quant, Berlin, Germany) by the single-photon counting method. Lifetimes were evaluated using software supplied with the instrument. The time-resolved fluorescence instrumentation was the same as for steady-state experiments. Cyclic voltammograms were carried out on a Gamry setup with a carbon working electrode and a platinum wire as a counter electrode. A silver–silver chloride (Ag/AgCl) electrode was used as a reference electrode. All tests were carried out in oxygen-free solutions, and sodium sulfate was used as an electrolyte support. Dynamic light scattering (DLS) was used to determine the distribution profile of the particle size in the solution.

T1 sequence (P02769 25-607): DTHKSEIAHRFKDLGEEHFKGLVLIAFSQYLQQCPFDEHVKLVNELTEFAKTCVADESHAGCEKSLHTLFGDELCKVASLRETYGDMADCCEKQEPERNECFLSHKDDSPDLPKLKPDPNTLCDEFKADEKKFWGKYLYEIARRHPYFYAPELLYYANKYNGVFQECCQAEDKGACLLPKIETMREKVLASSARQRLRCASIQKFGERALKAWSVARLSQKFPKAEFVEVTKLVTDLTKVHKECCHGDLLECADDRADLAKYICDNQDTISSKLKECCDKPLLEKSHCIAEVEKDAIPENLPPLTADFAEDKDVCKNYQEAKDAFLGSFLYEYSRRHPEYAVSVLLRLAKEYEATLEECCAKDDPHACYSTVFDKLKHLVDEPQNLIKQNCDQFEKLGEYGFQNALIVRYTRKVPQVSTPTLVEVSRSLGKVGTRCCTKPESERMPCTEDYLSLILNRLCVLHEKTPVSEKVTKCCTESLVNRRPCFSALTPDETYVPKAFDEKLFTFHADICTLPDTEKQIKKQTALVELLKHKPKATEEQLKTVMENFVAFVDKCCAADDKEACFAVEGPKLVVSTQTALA

| ΔHº (BSA [1]) [kcal/mol] | ΔSº (BSA [1]) [J mol^−1 K^−1] | KA (association constant) (BSA [1]; T = 288 K) | n (number of binding sites) (BSA [1]; T = 288 K) | ΔGº (BSA [1]; T = 288 K) [kcal/mol] | KA (association constant) (BSA [1]; T = 298 K) | n (number of binding sites) (BSA [1]; T = 298 K) | ΔGº (BSA [1]; T = 298 K) [kcal/mol] | KA (association constant) (BSA [1]; T = 308 K) | n (number of binding sites) (BSA [1]; T = 308 K) | ΔGº (BSA [1]; T = 308 K) [kcal/mol] | n (number of binding sites) (BSA [1]; all temperatures) | J (spectral overlap integral) (BSA [2]) | R0 (critical distance for 50% energy transfer) (BSA [2]) [nm] | r (distance between acceptor and donor) (BSA [2]) [nm] | ∫F donor λ Δλ (BSA [2]) | MIC (Enterococcus) [µg/mL] | MIC (Pseudomonas aeruginosa) [µg/mL] | SMILES | MBC (Enterococcus) [µg/mL] | MBC (Pseudomonas aeruginosa) [µg/mL] | also measured |
| --- | --- | --- | --- | --- | --- | --- | --- | --- | --- | --- | --- | --- | --- | --- | --- | --- | --- | --- | --- | --- | --- |
| 10 ± 2.39 | 261 ± 35 | 9.9 10^5 M^−1 | 1.12 | -7.93 ± 0.019 | 22.8 10^5 M^−1 | 1.32 | -8.56 ± 0.096 | 30.7 10^5 M^−1 | 1.45 | -9.18 ± 0.19 | ~1 | 9.0 10^−13 L mol^−1 cm^3 | 2.51 | 3.21 | 79.6 | 25.0 | 12.5 | CC(=Nc1cc(C(C)(C)C)cc(C(C)(C)C)c1[S-])c1cccc(C(C)=Nc2cc(C(C)(C)C)cc(C(C)(C)C)c2[S-])n1.[Zn+2] [DBZ, [Zn(py^tBuN2Me2S2)]] | 50.0 | 25.0 | MBC (Escherichia coli): 50.0 µg/mL; MIC (Escherichia coli; 24 h): 25.0 µg/mL; MBC (Staphylococcus aureus): 25.0 µg/mL; MIC (Staphylococcus aureus): 12.5 µg/mL; mean size of self-assembled adduct with BSA [3]: 110 nm; Kq (quenching rate constant) (BSA [4]; T = 288 K): 4.15 10^14 M^−1 s^−1; Ksv (Stern–Volmer quenching constant) (BSA [4]; T = 288 K): 19.0 10^5 M^−1; Kq (quenching rate constant) (BSA [4]; T = 298 K): 5.40 10^14 M^−1 s^−1; Ksv (Stern–Volmer quenching constant) (BSA [4]; T = 298 K): 24.7 10^5 M^−1; Kq (quenching rate constant) (BSA [4]; T = 318 K): 5.97 10^14 M^−1 s^−1; Ksv (Stern–Volmer quenching constant) (BSA [4]; T = 318 K): 27.3 10^5 M^−1; DBZ binds to BSA more than DBZH4 (BSA [4]; ratio of KSV, DBZ over DBZH4): ~30 fold; DBZ binds stronger than DBZH4 (BSA [4]; ratio of binding constants, conclusions): about 35 times; KSV (called binding constants in conclusions) (BSA [4]): 2.47e+06 M⁻¹; Kq (BSA [4]): 5.4e+14 M⁻¹ s⁻¹; BSA cathodic peak potential after addition of complex (BSA [5]): −0.55 V; kR/kO binding constants (BSA [5]): 0.43 |
| 15.5 ± 0.48 | 304 ± 6 | 0.13 10^5 M^−1 | 1.22 | -5.4 ± 0.072 | 0.31 10^5 M^−1 | 1.40 | -6.12 ± 0.048 | 0.76 10^5 M^−1 | 1.42 | -6.84 ± 0.048 | ~1 | 5.4 10^−13 L mol^−1 cm^3 | 2.31 | 3.67 | 90.0 | 30.0 | 15.0 | CC(Nc1cc(C(C)(C)C)cc(C(C)(C)C)c1[S-])c1cccc(C(C)Nc2cc(C(C)(C)C)cc(C(C)(C)C)c2[S-])n1.[Zn+2] (centres unmarked) [DBZH4, [Zn(py^tBuN2H4Me2S2)]] | 60.0 | 30.0 | MBC (Staphylococcus aureus): 30.0 µg/mL; MIC (Staphylococcus aureus): 15.0 µg/mL; mean size of self-assembled adduct with BSA [3]: 339 nm; size range of self-assembled adduct with BSA [3]: 100–1000 nm; Kq (quenching rate constant) (BSA [4]; T = 288 K): 0.150 10^14 M^−1 s^−1; Ksv (Stern–Volmer quenching constant) (BSA [4]; T = 288 K): 0.69 10^5 M^−1; Kq (quenching rate constant) (BSA [4]; T = 298 K): 0.153 10^14 M^−1 s^−1; Ksv (Stern–Volmer quenching constant) (BSA [4]; T = 298 K): 0.70 10^5 M^−1; Kq (quenching rate constant) (BSA [4]; T = 318 K): 0.155 10^14 M^−1 s^−1; Ksv (Stern–Volmer quenching constant) (BSA [4]; T = 318 K): 0.71 10^5 M^−1; KSV (called binding constants in conclusions) (BSA [4]): 70000 M⁻¹; Kq (BSA [4]): 1.5e+13 M⁻¹ s⁻¹; BSA cathodic peak potential after addition of complex (BSA [5]): −0.57 V; kR/kO binding constants (BSA [5]): 0.48 |
